Test system: A431 human epidermoid cells
Assay: Oxidative damage protection assay (Example 3), compound with 1 mM H2O2, alamar blue readout
Assay type: cell-based
Description: The cells were trypsinized with 0.25% trypsin EDTA solution for 2-3 minutes until the cells were dislodged. The cells were sub-cultured in a ratio of 1:3 for further growth and scale-up for the assay. The cells were trypsinized and counted to a density of 5,000 or 15,000 cells and seeded in 100 μL media per well, in 96-well clear bottom black plates. The outer wells at the periphery of the plates were left unneeded and were instead filled with media to reduce the edge effect during incubation. […] Each concentration was tested in 6 replicates.
Detection method used: Cell Titer blue (Promega, Cat# G8080).

Compound: CC(=O)OC[C@H]1O[C@@H](N2C=CCC(C(N)=O)=C2)[C@H](OC(C)=O)[C@@H]1OC(C)=O [NRH triacetate (2), 1-(2′,3′,5′-triacetyl-beta-D-ribofuranosyl)-1,4-dihydronicotinamide]
- mitigating oxidative damage to human skin cells (Trial A, FIG. 1, 1 mM H2O2 for 20 hours, all doses (0.1, 0.3, 1 mM)): capable of mitigating oxidative damage
- cytoprotection compared to positive controls (Trial A, FIG. 1, 1 mM H2O2 for 20 hours, dose-dependent, highest over 0.1-1 mM): up to 88%
- cytoprotection compared to positive controls (Trial B, FIG. 2, 1 mM H2O2, compound at 1 mM): 94%
- protection against oxidative damage in skin cells (composite of Trials A and B, FIG. 3): can protect against oxidative damage

Reference: patent US10280190B2, “Nicotinic acid riboside or nicotinamide riboside compositions, reduced derivatives thereof, and the use thereof to enhance skin permeation in treating skin conditions” (ChromaDex Inc., priority 2015, dated 2019)
